# Laboratory results published in patent US6436948B1, “Method for the treatment of psoriasis and genital warts” (priority 1995, dated 2002).
# Columns and labels:
# Leukemia P388 cells = assay: In vivo treatment of leukemia P388 cells implanted ip in BDF1 mice; conditions: 25x2x5 mg/kg ip
# Experimental: 10^6 Leukemia P388 cells were implanted ip to BDF1 mice obtained from Southern Research Institute, Alabama. (−)-OddC was administered ip twice daily for five days starting one day after tumor cell implantation.
# FIG. 3 and Table 1 show the results of these studies.
# BDF1 mice = assay: Toxicity to BDF1 mice, ip twice daily for five days; assay type: in vivo; conditions: 75 mg/kg/dose ip twice daily for five days
# Colon 38 tumor cells = assay: In vivo treatment of Colon 38 tumor cells implanted sc in BDF1 mice; parameters: species or system mouse; conditions: 25 mg/kg/dose twice daily for five days
# Excerpt: The graph plots tumor growth as a percentage of original tumor weight vs. days. Treatment of the mice occurred in days 1, 2, 3, 4 and 5.
# Colon 38 tumor cells were implanted sc to BDF1 mice.
# CCRF-CEM = assay: NCI cancer screening program, SRB: CCRF-CEM; assay type: cell-based; conditions: Leukemia, log10 concentration at PG +50, 48 hours
# RL-60(TB) = assay: NCI cancer screening program, SRB: RL-60(TB); assay type: cell-based
# K-562 = assay: NCI cancer screening program, SRB: K-562; assay type: cell-based; conditions: Leukemia, PG +50, 48 hours
# BSOLT-4 = assay: NCI cancer screening program, SRB: BSOLT-4; assay type: cell-based; conditions: Leukemia, PG +50, 48 hours
# RPMI-2.26 = assay: NCI cancer screening program, SRB: RPMI-2.26; assay type: cell-based; conditions: Leukemia, PG +50, 48 hours
# SR = assay: NCI cancer screening program, SRB: SR; assay type: cell-based; conditions: Leukemia, PG +50, 48 hours
# HOP-62 = assay: NCI cancer screening program, SRB: HOP-62; assay type: cell-based; conditions: Non-Small Cell Lung Cancer, PG +50, 48 hours
# NCI-H23 = assay: NCI cancer screening program, SRB: NCI-H23; assay type: cell-based; conditions: Non-Small Cell Lung Cancer, PG +50, 48 hours
# NCI-H460 = assay: NCI cancer screening program, SRB: NCI-H460; assay type: cell-based; conditions: Non-Small Cell Lung Cancer, PG +50, 48 hours
# NCI-H522 = assay: NCI cancer screening program, SRB: NCI-H522; assay type: cell-based; conditions: Non-Small Cell Lung Cancer, PG +50, 48 hours
# COLO205 = assay: NCI cancer screening program, SRB: COLO205; assay type: cell-based; conditions: Colon Cancer
# HCT-116 = assay: NCI cancer screening program, SRB: HCT-116; assay type: cell-based; conditions: Colon Cancer, PG +50, 48 hours
# HCT-15 = assay: NCI cancer screening program, SRB: HCT-15; assay type: cell-based; conditions: Colon Cancer, PG +50, 48 hours
# HT29 = assay: NCI cancer screening program, SRB: HT29; assay type: cell-based; conditions: Colon Cancer, PG +50, 48 hours
# SNB-19 = assay: NCI cancer screening program, SRB: SNB-19; assay type: cell-based; conditions: CNS Cancer, PG +50, 48 hours
# U251 = assay: NCI cancer screening program, SRB: U251; assay type: cell-based; conditions: CNS Cancer, PG +50, 48 hours
# LOX D6VI = assay: NCI cancer screening program, SRB: LOX D6VI; assay type: cell-based; conditions: Melanoma
# MALME-3M = assay: NCI cancer screening program, SRB: MALME-3M; assay type: cell-based; conditions: Melanoma, PG +50, 48 hours
# SK-MEL-28 = assay: NCI cancer screening program, SRB: SK-MEL-28; assay type: cell-based; conditions: Melanoma, PG +50, 48 hours
# SK-MEL-5 = assay: NCI cancer screening program, SRB: SK-MEL-5; assay type: cell-based; conditions: Melanoma, PG +50, 48 hours
# UACC-257 = assay: NCI cancer screening program, SRB: UACC-257; assay type: cell-based; conditions: Melanoma, PG +50, 48 hours
# UACC-62 = assay: NCI cancer screening program, SRB: UACC-62; assay type: cell-based; conditions: Melanoma, PG +50, 48 hours
# OVCAR-3 = assay: NCI cancer screening program, SRB: OVCAR-3; assay type: cell-based; conditions: Ovarian Cancer
# OVCAR-4 = assay: NCI cancer screening program, SRB: OVCAR-4; assay type: cell-based; conditions: Ovarian Cancer, PG +50, 48 hours
# OVCAR-5 = assay: NCI cancer screening program, SRB: OVCAR-5; assay type: cell-based; conditions: Ovarian Cancer, PG +50, 48 hours
# OVCAR-8 = assay: NCI cancer screening program, SRB: OVCAR-8; assay type: cell-based; conditions: Ovarian Cancer
# SK-OV-3 = assay: NCI cancer screening program, SRB: SK-OV-3; assay type: cell-based; conditions: Ovarian Cancer
# ACHN = assay: NCI cancer screening program, SRB: ACHN; assay type: cell-based; conditions: Renal Cancer, PG +50, 48 hours
# CAKI-1 = assay: NCI cancer screening program, SRB: CAKI-1; assay type: cell-based; conditions: Renal Cancer, PG +50, 48 hours
# RXF-393 = assay: NCI cancer screening program, SRB: RXF-393; assay type: cell-based; conditions: Renal Cancer, PG +50, 48 hours
compound,measurement,setting,value
"Nc1ccn([C@@H]2CO[C@H](CO)O2)c(=O)n1 [(−)-OddC, (−)-(2S,4S)-1-(2-hydroxymethyl-1,3-dioxolan-4-yl)cytosine]",Cures/Total (survivors equal or greater than 45 day life span),Leukemia P388 cells,one long term survivor
same,Mean Survival Time,"Leukemia P388 cells; twice a day on days 1 to 5, 10^6 P388 cells ip on day 0",27 days
same,Toxicity to the mice,BDF1 mice,toxic
same,Colon tumor cell growth,Colon 38 tumor cells,retarded
same,Log10GI50,CCRF-CEM,−6.64
same,Log10GI50,RL-60(TB),−6.28
same,Log10GI50,K-562,−4.59
same,Log10GI50,BSOLT-4,−6.66
same,Log10GI50,RPMI-2.26,−4.03
same,Log10GI50,SR,−5.95
same,Log10GI50,HOP-62,−6.23
same,Log10GI50,NCI-H23,−4.92
same,Log10GI50,NCI-H460,−4.32
same,Log10GI50,NCI-H522,−6.06
same,Log10TGI,"COLO205; PG 0, 48 hours",>−4.00
same,Log10GI50,"COLO205; PG +50, 48 hours",−4.03
same,Log10GI50,HCT-116,−5.23
same,Log10GI50,HCT-15,−5.39
same,Log10GI50,HT29,>−4.00
same,Log10GI50,SNB-19,−5.71
same,Log10GI50,U251,−4.91
same,Log10TGI,"LOX D6VI; PG 0, 48 hours",>−4.00
same,Log10GI50,"LOX D6VI; PG +50, 48 hours",−6.39
same,Log10GI50,MALME-3M,−4.51
same,Log10GI50,SK-MEL-28,−4.31
same,Log10GI50,SK-MEL-5,−4.91
same,LOG10GI50,UACC-257,>−4.00
same,LOG10GI50,UACC-62,−5.53
same,LOG10TGI,"OVCAR-3; PG 0, 48 hours",>−4.00
same,LOG10GI50,"OVCAR-3; PG +50, 48 hours",−4.44
same,LOG10GI50,OVCAR-4,>−4.00
same,LOG10GI50,OVCAR-5,−4.41
same,LOG10TGI,"OVCAR-8; PG 0, 48 hours",>−4.00
same,LOG10GI50,"OVCAR-8; PG +50, 48 hours",−5.82
same,LOG10TGI,"SK-OV-3; PG 0, 48 hours",>−4.00
same,LOG10GI50,"SK-OV-3; PG +50, 48 hours",−5.35
same,LOG10GI50,ACHN,−6.46
same,LOG10GI50,CAKI-1,−6.65
same,LOG10GI50,RXF-393,−6.17
